Test results from PubChem BioAssay AID743062 (Sanford-Burnham Center for Chemical Genomics, 2013).
“And” between values parts separate entries of the source, which are not always exact repeats. Identical values can stand only once. The source made the active and inactive calls.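 Rule for the calls: active = IC50 of 25 µM or lower, counted as toxic to worms; inactive = the rest.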

System: C. elegans VP596 worm health composite score, 20-22 h
Experiment: nematode toxicity of SKN-1 inhibitor analogs – whole organism, strain VP596, composite health score, round 3, cytotoxicity control for SKN-1 inhibitor project, SAR follow-up (AID 743062)

Row | SMILES | IC50
1 | COc1ccc(-c2csc(-c3cccnc3)n2)cc1 | 36.4 µM (inactive)
2 | Clc1ccc(-c2csc(-c3ccccn3)n2)cc1 | 23.1 µM and > 64 µM (inactive)
3 | Fc1ccc(-c2csc(-c3ccccn3)n2)cc1 | 42 µM (inactive)
4 | Clc1ccc(-c2csc(-c3ccccc3)n2)cc1 | > 64 µM (inactive)
5 | Cc1csc(-c2ccncc2)n1 | > 64 µM (inactive)
6 | Cc1ccc(-c2csc(C3CCNCC3)n2)cc1 | > 64 µM (inactive)
7 | Cc1ccccc1-c1csc(-c2ccncc2)n1 | 55.7 µM (inactive)
8 | c1cc(-c2nc(-c3nccs3)cs2)ccn1 | > 64 µM (inactive)
9 | Cc1ccc(-c2csc(-c3cccnc3)n2)cc1 | > 64 µM (inactive)
10 | Clc1ccc(-c2csc(-c3cccnc3)n2)cc1 | 11.1 µM and 29.4 µM (inactive)
11 | FC(F)(F)c1ccc(-c2csc(-c3ccncc3)n2)cc1 | 20.3 µM
12 | c1ccc(-c2csc(-c3ccncc3)n2)cc1 | 42.4 µM (inactive)
13 | COC(=O)c1ccc(-c2csc(-c3ccncc3)n2)cc1 | > 64 µM (inactive)
14 | Clc1ccc(-c2csc(C3CCNCC3)n2)cc1 | > 64 µM (inactive)
15 | c1ccc(-c2csc(-c3cccnc3)n2)cc1 | 53.9 µM (inactive)
16 | c1ccc(-c2nc(-c3cccnc3)cs2)cc1 | > 64 µM (inactive)
17 | Fc1ccc(-c2csc(-c3ccccc3)n2)cc1 | 28.4 µM (inactive)
18 | CC(C)(C)c1csc(-c2ccncc2)n1 | > 64 µM (inactive)
19 | COc1ccc(-c2nc(-c3ccncc3)sc2C)cc1 | > 64 µM (inactive)
20 | COc1ccc(-c2csc(-c3ccccn3)n2)cc1 | 21.4 µM
21 | Cc1sc(C2CCNCC2)nc1-c1ccccc1 | > 64 µM (inactive)
22 | COc1ccc(-c2csc(-c3ccncc3)n2)cc1 | > 64 µM (inactive)
23 | Fc1ccc(-c2csc(-c3cccnc3)n2)cc1 | 35.6 µM (inactive)
24 | c1ccc(-c2csc(C3CCNCC3)n2)cc1 | > 64 µM (inactive)

Row | SMILES | IC50
25 | Cc1ccc(-c2nc(-c3ccncc3)sc2C)cc1 | > 64 µM (inactive)
26 | Clc1ccc(-c2csc(-c3ccncc3)n2)c(Cl)c1 | > 64 µM (inactive)
27 | Clc1ccc(-c2csc(-c3ccncc3)n2)cc1Cl | 10.5 µM and 33.7 µM (inactive)
28 | Fc1ccc(-c2csc(-c3ccncc3)n2)cc1 | 53.6 µM (inactive)
29 | Fc1ccc(-c2csc(C3CCNCC3)n2)cc1 | > 64 µM (inactive)
30 | COc1ccccc1-c1csc(-c2ccncc2)n1 | 48.4 µM (inactive)
31 | Cc1ccc(-c2csc(-c3ccccn3)n2)cc1 | > 64 µM (inactive)
32 | Cc1sc(-c2ccncc2)nc1-c1ccc(F)cc1 | > 64 µM (inactive)
33 | c1cc(-c2nc(C3CC3)cs2)ccn1 | > 64 µM (inactive)
34 | CCCc1cc(-c2nc(-c3ccc(C)cc3)cs2)ccn1 | > 64 µM (inactive)
35 | Clc1cccc(-c2csc(-c3ccncc3)n2)c1 | 16 µM
36 | Clc1ccccc1-c1csc(-c2ccncc2)n1 | 33.2 µM (inactive)
37 | N#Cc1ccc(-c2csc(-c3ccncc3)n2)cc1 | 37.2 µM (inactive)
38 | Cc1sc(-c2ccncc2)nc1-c1ccc(Cl)cc1 | > 64 µM (inactive)
39 | CCCc1cc(-c2nc(-c3ccc(NS(C)(=O)=O)cc3)cs2)ccn1 | > 64 µM (inactive)
40 | Cc1cccc(-c2csc(-c3ccncc3)n2)c1 | 50.8 µM (inactive)
41 | Cc1ccc(-c2csc(-c3ccccc3)n2)cc1 | > 64 µM (inactive)
42 | COc1ccc(-c2csc(-c3ccccc3)n2)cc1 | > 64 µM (inactive)
43 | Cc1sc(-c2ccncc2)nc1-c1ccccc1 | 48.3 µM (inactive)
44 | c1ccc(-c2csc(-c3ccccn3)n2)cc1 | > 64 µM (inactive)
45 | COc1ccc(-c2csc(C3CCNCC3)n2)cc1 | > 64 µM (inactive)
46 | COc1cccc(-c2csc(-c3ccncc3)n2)c1 | 55.7 µM (inactive)
47 | Cc1ccc(-c2csc(-c3ccncc3)n2)cc1 | 54.6 µM (inactive)
48 | Clc1ccc(-c2csc(-c3ccncc3)n2)cc1 | 32.7 µM (inactive) and 11.5 µM
